For 74 molecules, IC50 and Activity results are on record in ChEMBL document CHEMBL4622859, “Discovery of stereospecific cytotoxicity of (8R,8'R)-trans-arctigenin against insect cells and structure-activity relationship on aromatic ring” (Bioorg Med Chem Lett, 2020).

Activity calls are given as the source filed them. The rule behind the calls is not given here.

Test [1] is described as follows: Cytotoxicity against Spodoptera frugiperda Sf9 cells assessed as reduction in cell viability. In kind it is cell-based.
A short description of test [2]: Cytotoxicity against Aedes albopictus NIAS-AeAl-2 cells assessed as reduction in cell viability. In kind it is functional, cell-based.
Test [3] deals with HL-60. As to the kind of experiment: Cytotoxicity against human HL60 cells assessed as reduction in cell viability. Format: functional, cell-based.
Test [4] in a line: Effect on 28s ribosomal RNA expression in Spodoptera frugiperda Sf9 cells. In kind it is functional.
The test system of test [5] is Sf9. In words: Induction of DNA degradation in Spodoptera frugiperda Sf9 cells by DNA ladder assay. Format: functional, cell-based.

By IC50 is commonly meant the concentration that gives 50% inhibition. `COc1ccc(C[C@H]2COC(=O)[C@@H]2Cc2ccc(C)cc2)cc1OC`: the IC50 in test [1] is 11 µM; in test [2], 3.5 µM.

In the case of `COc1ccc(C[C@H]2COC(=O)[C@@H]2Cc2cccc(O)c2)cc1OC`, the IC50 in test [1] is 22 µM.

Turning to `COc1ccc(C[C@H]2C(=O)OC[C@@H]2Cc2ccc(OC)c(OC)c2)cc1`, the IC50 in test [1] was 11 µM; in test [2], 4.3 µM.

For `COc1ccc(C[C@H]2COC(=O)[C@@H]2Cc2ccc(O)c(O)c2)cc1OC`, in test [1], the IC50 is 10 µM.

As to `COc1ccc(C[C@H]2COC(=O)[C@@H]2Cc2cc(OC)c(O)c(OC)c2)cc1OC`, in test [1], the IC50 worked out at 9.1 µM.

On to `COc1ccc(C[C@@H]2COC(=O)[C@H]2Cc2ccc(I)cc2)cc1OC`, for which the concentration for half-maximal inhibition (IC50) in test [1] turned out to be 25 µM.

Consider `COc1ccc(C[C@H]2C(=O)OC[C@@H]2Cc2ccc(OC)c(OC)c2)cc1O`, for which, in test [1], the IC50 was 19 µM.

For the molecule `COc1ccc(C[C@H]2COC(=O)[C@@H]2Cc2cccc(Cl)c2)cc1OC`, in test [1], the IC50 came to 17 µM.

As to `O=C1OC[C@H](Cc2ccccc2F)[C@H]1Cc1ccc(I)cc1`, the IC50 in test [1] is 20 µM.

For the molecule `COc1cc(C[C@H]2C(=O)OC[C@H]2Cc2ccc(OC)c(OC)c2)ccc1O`, the IC50 was above 100 µM in test [1], 57 µM in test [2] and 13 µM in test [3].

Consider `COc1cc(C[C@@H]2C(=O)OC[C@@H]2Cc2ccc(OC)c(OC)c2)ccc1O`, for which the IC50 came to 13 µM in test [1], 6.3 µM in test [2] and 8.5 µM in test [3].

Turning to `COc1ccc(C[C@H]2COC(=O)[C@@H]2Cc2ccc(Cl)c(Cl)c2)cc1OC`, in test [1], the IC50 came to 25 µM.

On to `COc1ccc(C[C@H]2COC(=O)[C@@H]2Cc2cccc(F)c2)cc1OC`, for which the IC50 in test [1] came to 23 µM.

As for `COc1ccc(C[C@H]2COC(=O)[C@@H]2Cc2ccc(C(F)(F)F)cc2)cc1OC`, the 50% inhibitory concentration (IC50) is 20 µM in test [1] and 10 µM in test [2].

For `COc1ccc(C[C@@H]2COC(=O)[C@H]2Cc2ccc3c(c2)OCO3)cc1OC`, the IC50 in test [1] came to 41 µM.

For `COc1ccccc1C[C@H]1C(=O)OC[C@@H]1Cc1ccc(OC)c(OC)c1`, in test [1], the half-maximal inhibitory concentration (IC50) was 24 µM.

For the molecule `O=C1OC[C@H](Cc2ccccc2)[C@H]1Cc1ccc(I)cc1`, the IC50 in test [1] turned out to be 24 µM.

On to `O=C1OC[C@H](Cc2ccccc2C(F)(F)F)[C@H]1Cc1ccc(I)cc1`, for which, in test [1], the IC50 stood at 24 µM.

On to `O=C1OC[C@H](Cc2ccc(C(F)(F)F)cc2)[C@H]1Cc1ccc(I)cc1`, for which the IC50 in test [1] is 15 µM.

Consider `COc1ccc(C[C@H]2COC(=O)[C@@H]2Cc2ccccc2F)cc1OC`, for which, in test [1], the IC50 turned out to be 43 µM.

On to `COc1ccc(C[C@H]2COC(=O)[C@@H]2Cc2cccc3c2OCO3)cc1OC`, for which the IC50 in test [1] turned out to be 46 µM.

Take `COc1ccc(C[C@H]2COC(=O)[C@@H]2Cc2ccc(I)cc2)cc1OC`: the results for the IC50 in test [1] and in test [2] were 6.3 µM and 2.9 µM, respectively.

As to `COc1ccc(C[C@H]2COC(=O)[C@@H]2Cc2ccc(O)c(C)c2)cc1OC`, the IC50 in test [1] was 11 µM.

For the molecule `COc1ccc(C[C@H]2COC(=O)[C@@H]2Cc2ccc(O)cc2)cc1OC`, the IC50 in test [1] came out at 9.9 µM; in test [2] it was 1 µM.

For `COc1cccc(C[C@H]2COC(=O)[C@@H]2Cc2ccc(I)cc2)c1`, the IC50 in test [1] was 15 µM.

With `COc1cccc(C[C@H]2C(=O)OC[C@@H]2Cc2ccc(OC)c(OC)c2)c1`, the IC50 in test [1] is 17 µM.

Regarding `O=C1OC[C@H](Cc2ccc(F)cc2)[C@H]1Cc1ccc(I)cc1`, the IC50 in test [1] is 22 µM.

As to `COc1ccc(C[C@H]2COC(=O)[C@@H]2Cc2ccc(OC)c(OC)c2)cc1OC`, the IC50 in test [1] stood at 15 µM.

Consider `COc1ccc(C[C@H]2COC(=O)[C@@H]2Cc2ccc(Br)cc2)cc1OC`, for which, in test [1], the IC50 was 9.1 µM.

With `COc1ccc(C[C@H]2COC(=O)[C@@H]2Cc2ccccc2C)cc1OC`, the IC50 in test [1] stood at 28 µM.

Consider `COc1ccc(C[C@H]2COC(=S)[C@@H]2Cc2ccc(I)cc2)cc1OC`, for which the IC50 in test [1] came to 4.7 µM; in test [2] it was 2.4 µM.

`O=C1OC[C@H](Cc2ccc3c(c2)OCCO3)[C@H]1Cc1ccc(I)cc1`: the IC50 in test [1] amounted to 10 µM.

Regarding `COc1ccc(C[C@H]2COC(=O)[C@@H]2Cc2cccc(I)c2)cc1OC`, the IC50 in test [1] stood at 5.4 µM.

On to `COc1ccc(C[C@H]2COC(=O)[C@@H]2Cc2ccc(F)c(F)c2)cc1OC`, for which the IC50 in test [1] was 64 µM; in test [2] it was 13 µM.

In the case of `O=C1OC[C@H](Cc2cccc(F)c2)[C@H]1Cc1ccc(I)cc1`, the IC50 in test [1] came to 22 µM.

With `COc1ccc(C[C@H]2COC(=O)[C@@H]2Cc2ccc3c(c2)OCO3)cc1OC` [(-)-KUSUNOKININ], the figures for the IC50 in test [1] and in test [2] were 8.2 µM and 2.7 µM, respectively.

As to `COc1ccc(C[C@H]2COC(=O)[C@@H]2Cc2ccccc2O)cc1OC`, the IC50 was found to be 54 µM in test [1] and 17 µM in test [2].

For `CCc1ccc(C[C@H]2C(=O)OC[C@@H]2Cc2ccc(OC)c(OC)c2)cc1`, in test [1], the IC50 amounted to 17 µM.

Take `COc1ccc(C[C@H]2COC(=S)[C@@H]2Cc2cc(F)c(F)c(F)c2)cc1OC`: the IC50 in test [1] was 22 µM; in test [2] it was 15 µM.

Consider `COc1ccc(C[C@@H]2COC(=O)[C@H]2Cc2ccc(C)cc2)cc1OC`, for which the IC50 in test [1] was 42 µM.

Take `COc1ccc(C[C@H]2COC(=S)[C@@H]2Cc2ccccc2C)cc1OC`: the concentration for half-maximal inhibition (IC50) in test [1] came to 19 µM.

For the molecule `Cc1cccc(C[C@H]2COC(=O)[C@@H]2Cc2ccc(I)cc2)c1`, in test [1], the IC50 was determined as 24 µM.

In the case of `Cc1ccccc1C[C@H]1COC(=O)[C@@H]1Cc1ccc(I)cc1`, in test [1], the IC50 amounted to 21 µM.

Consider `O=C1OC[C@H](Cc2cccc(Cl)c2)[C@H]1Cc1ccc(I)cc1`, for which, in test [1], the IC50 was found to be 27 µM.

In the case of `COc1ccc(C[C@H]2COC(=O)[C@@H]2Cc2cc(F)c(F)c(F)c2)cc1OC`, in test [1], the IC50 amounted to 44 µM.

In the case of `COc1cc(C[C@@H]2C(=O)OC[C@H]2Cc2ccc(OC)c(OC)c2)ccc1O`, the figures for the IC50 in test [1], in test [2] and in test [3] were 80 µM, 28 µM and 23 µM, respectively. Also, the outcome in test [4] was Active.

Turning to `O=C1OC[C@H](Cc2ccccc2Cl)[C@H]1Cc1ccc(I)cc1`, the IC50 in test [1] is 21 µM.

As to `COc1ccc(C[C@@H]2COC(=O)[C@H]2Cc2ccc(Cl)cc2)cc1OC`, the IC50 in test [1] is 40 µM.

For the molecule `COc1ccc(C[C@H]2COC(=O)[C@@H]2Cc2ccccc2C(F)(F)F)cc1OC`, in test [1], the concentration for half-maximal inhibition (IC50) worked out at 25 µM.

Consider `COc1ccc(C[C@H]2COC(=O)[C@@H]2Cc2cccc(C)c2)cc1OC`, for which the concentration for half-maximal inhibition (IC50) in test [1] came to 12 µM.

For `COc1ccc(C[C@H]2COC(=O)[C@@H]2Cc2cccc(C(F)(F)F)c2)cc1OC`, the IC50 in test [1] was found to be 19 µM.

On to `COc1ccc(C[C@H]2COC(=O)[C@@H]2Cc2ccc(Cl)cc2)cc1OC`, for which the IC50 in test [1] stood at 10 µM; in test [2], 2.3 µM.

On to `Cc1ccc(C[C@H]2COC(=O)[C@@H]2Cc2ccc(I)cc2)cc1`, for which the half-inhibitory concentration (IC50) in test [1] stood at 20 µM.

As to `COc1ccc(C[C@@H]2COC(=O)[C@H]2Cc2ccc(O)cc2)cc1OC`, in test [1], the IC50 was 29 µM.

With `COc1cc(C[C@H]2COC(=O)[C@@H]2Cc2ccc(I)cc2)ccc1O`, the IC50 in test [1] was determined as 19 µM.

Take `O=C1OC[C@H](Cc2ccc(O)cc2)[C@H]1Cc1ccc(I)cc1`: the IC50 in test [1] turned out to be 21 µM.

In the case of `COc1ccc(C[C@H]2COC(=O)[C@@H]2Cc2ccccc2Cl)cc1OC`, in test [1], the concentration for half-maximal inhibition (IC50) was 24 µM.

For the molecule `O=C1OC[C@H](Cc2ccc(Cl)cc2)[C@H]1Cc1ccc(I)cc1`, in test [1], the IC50 is 18 µM.

As to `COc1ccc(C[C@H]2COC(=O)[C@@H]2Cc2ccc(F)cc2)cc1OC`, the IC50 was found to be 28 µM in test [1] and 8.3 µM in test [2].

Consider `COc1ccc(C[C@H]2COC(=O)[C@@H]2Cc2ccccc2I)cc1OC`, for which, in test [1], the half-inhibitory concentration (IC50) was 18 µM.

Take `O=C1OC[C@H](Cc2cccc(O)c2)[C@H]1Cc1ccc(I)cc1`: the IC50 in test [1] is 18 µM.

On to `COc1ccccc1C[C@H]1COC(=O)[C@@H]1Cc1ccc(I)cc1`, for which, in test [1], the IC50 was 22 µM.

For the molecule `COc1ccc(C[C@H]2COC(=O)[C@@H]2Cc2ccc(C(C)(C)C)cc2)cc1OC`, in test [1], the IC50 stood at 17 µM.

Regarding `O=C1OC[C@H](Cc2ccc3c(c2)OCO3)[C@H]1Cc1ccc(I)cc1`, in test [1], the IC50 amounted to 12 µM.

As for `COc1ccc(C[C@H]2COC(=O)[C@@H]2Cc2ccc(C)c(C)c2)cc1OC`, the IC50 in test [1] came to 9.3 µM.

Turning to `COc1ccc(C[C@H]2COC(=O)[C@@H]2Cc2ccccc2)cc1OC`, the IC50 in test [1] was 19 µM.

With `COc1cc(C[C@H]2C(=O)OC[C@@H]2Cc2ccc(OC)c(OC)c2)ccc1O` [ARCTIGENIN], the IC50 in test [1] was 6.7 µM; in test [2], 0.73 µM; in test [3] it was 13 µM. Further, in test [5], the result was inactive. Also, in test [4], the outcome was Active.

With `COc1ccc(C[C@H]2COC(=O)[C@@H]2Cc2ccc3c(c2)OCCO3)cc1OC`, the IC50 in test [1] is 15 µM.

`COc1ccc(C[C@@H]2C(=O)OC[C@H]2Cc2ccc(OC)c(OC)c2)cc1`: the IC50 in test [1] is 47 µM.

Regarding `COc1ccc(C[C@H]2COC(=S)[C@@H]2Cc2ccc3c(c2)OCO3)cc1OC`, in test [1], the IC50 stood at 7.2 µM.

Regarding `O=C1OC[C@H](Cc2ccccc2O)[C@H]1Cc1ccc(I)cc1`, the half-maximal inhibitory concentration (IC50) in test [1] was found to be 18 µM.

Regarding `COc1ccc(C[C@H]2COC(=O)[C@@H]2Cc2ccc(I)cc2)cc1`, in test [1], the IC50 amounted to 21 µM.

Turning to `COc1ccc(C[C@H]2COC(=O)[C@@H]2Cc2ccc(I)cc2)cc1O`, in test [1], the IC50 is 21 µM.

In the case of `O=C1OC[C@H](Cc2cccc(C(F)(F)F)c2)[C@H]1Cc1ccc(I)cc1`, the IC50 in test [1] was 19 µM.
